From US6645977B1 (priority 1997, dated 2003)
Where “and” joins values, the source holds several entries; their conditions need not be identical. Identical values can stand only once. Counter-ions that a name gives are not always drawn. Like-named read-outs stand apart in the source and are kept apart here.

Assays:
[1] = relative to morphine; cited from earlier work
[2] = target: nAChRs comprised of α4 and β2 subunits (labelled by 3H-cytisine) (Rattus norvegicus, UniProt P09483+P12390); assay: In vitro inhibition of 3H-cytisine binding
Sequence of nAChRs comprised of α4 and β2 subunits (labelled by 3H-cytisine) (P09483 31-630): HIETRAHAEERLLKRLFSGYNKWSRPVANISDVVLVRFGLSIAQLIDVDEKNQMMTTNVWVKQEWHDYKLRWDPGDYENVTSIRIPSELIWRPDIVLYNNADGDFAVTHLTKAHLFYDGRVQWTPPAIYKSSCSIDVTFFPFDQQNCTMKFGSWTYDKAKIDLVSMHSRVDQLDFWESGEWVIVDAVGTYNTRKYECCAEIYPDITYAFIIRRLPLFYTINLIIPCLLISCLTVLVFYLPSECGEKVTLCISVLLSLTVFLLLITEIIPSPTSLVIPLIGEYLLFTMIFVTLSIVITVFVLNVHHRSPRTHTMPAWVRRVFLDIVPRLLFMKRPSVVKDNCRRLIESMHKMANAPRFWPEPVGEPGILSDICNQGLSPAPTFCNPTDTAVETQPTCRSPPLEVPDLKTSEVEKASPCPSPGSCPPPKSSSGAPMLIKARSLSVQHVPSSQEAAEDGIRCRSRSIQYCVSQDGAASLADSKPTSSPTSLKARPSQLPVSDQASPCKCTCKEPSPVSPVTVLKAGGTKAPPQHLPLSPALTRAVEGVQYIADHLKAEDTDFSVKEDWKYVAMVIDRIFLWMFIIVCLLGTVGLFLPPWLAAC
Sequence of nAChRs comprised of α4 and β2 subunits (labelled by 3H-cytisine) (P12390 25-500): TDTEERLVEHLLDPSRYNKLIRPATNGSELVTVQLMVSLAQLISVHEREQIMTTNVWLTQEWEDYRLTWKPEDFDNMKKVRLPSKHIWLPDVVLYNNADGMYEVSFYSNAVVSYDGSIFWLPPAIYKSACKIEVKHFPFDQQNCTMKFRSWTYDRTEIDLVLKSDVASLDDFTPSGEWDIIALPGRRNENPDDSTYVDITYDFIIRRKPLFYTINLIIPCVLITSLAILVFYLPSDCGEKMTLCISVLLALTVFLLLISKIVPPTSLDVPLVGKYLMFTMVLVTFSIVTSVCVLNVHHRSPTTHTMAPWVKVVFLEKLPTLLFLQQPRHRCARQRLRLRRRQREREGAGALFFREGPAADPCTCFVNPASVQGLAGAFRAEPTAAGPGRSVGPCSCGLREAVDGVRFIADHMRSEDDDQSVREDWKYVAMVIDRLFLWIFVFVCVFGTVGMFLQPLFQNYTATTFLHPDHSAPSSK
Method: In vitro inhibition of ^3H-cytisine binding
The predominant subtype with high affinity for nicotine is comprised of α4 and β2 subunits. nAChRs of the latter type can selectively be labelled by the nicotine modulator ^3H-cytisine.
Tissue Preparation: Preparations are performed at 0-4° C. unless otherwise indicated. […] The homogenate is centrifuged at 27,000×g for 10 min. The supernatant is discarded and the pellet is resuspended in fresh buffer and centrifuged a second time. The final pellet is resuspended in fresh buffer (35 ml per g of original tissue) and used for binding assays.
Assay: Aliquots of 500 μl homogenate are added to 25 μl of test solution and 25 μl of ^3H-cytisine (1 nM, final concentration), mixed and incubated for 90 min at 2° C. Non-specific binding is determined using (−)-nicotine (100 μM, final concentration). After incubation the samples are added 5 ml of ice-cold buffer and poured directly onto Whatman GF/C glass fibre filters under suction and immediately washed with 2×5 ml ice-cold buffer. The amount of radioactivity on the filters is determined by conventional liquid scintillation counting. Specific binding is total binding minus non-specific binding.

[3] = target: nAChR labelled by 3H-α-bungarotoxin (α7 subunits) (Rattus norvegicus, UniProt Q05941); assay: biochemical; type: binding
Sequence of nAChR labelled by 3H-α-bungarotoxin (α7 subunits) (Q05941 23-502): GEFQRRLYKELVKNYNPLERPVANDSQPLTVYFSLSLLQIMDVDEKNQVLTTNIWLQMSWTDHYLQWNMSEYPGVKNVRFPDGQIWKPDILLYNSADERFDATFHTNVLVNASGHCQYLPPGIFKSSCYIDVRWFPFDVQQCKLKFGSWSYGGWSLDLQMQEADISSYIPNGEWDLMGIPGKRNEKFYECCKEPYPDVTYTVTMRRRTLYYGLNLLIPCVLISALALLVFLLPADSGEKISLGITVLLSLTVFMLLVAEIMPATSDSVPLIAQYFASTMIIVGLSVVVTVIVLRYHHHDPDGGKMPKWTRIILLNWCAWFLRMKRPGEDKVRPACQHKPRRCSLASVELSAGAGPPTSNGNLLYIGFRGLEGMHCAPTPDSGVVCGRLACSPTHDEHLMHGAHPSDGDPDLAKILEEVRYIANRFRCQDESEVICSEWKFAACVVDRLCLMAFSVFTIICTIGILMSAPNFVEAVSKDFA

[4] = rat cerebral cortex homogenate, 1 nM 3H-cytisine, 90 min at 2° C., read-out: 3H-cytisine IC50
[5] = 3H-cytisine IC50, rat cerebral cortex homogenate, 1 nM 3H-cytisine, 90 min at 2° C.
[6] = read-out: 3H-α-bungarotoxin IC50

| Compound | melting point | IC50 [3, 6] | further results |
| --- | --- | --- | --- |
| Clc1ccc(C2CC3CCC2N3)cn1 (stereo not shown) [Epibatidine] | – | – | approximate analgesic potency [1]: ~500 times that of morphine |
| CN1C2C=C(c3nccs3)CC1CC2.O=C(O)/C=C/C(=O)O (racemic) | 196.3 to 198.5 °C | – | – |
| CN1C2C=C(c3ccsc3)CC1CC2.Cl (racemic) | 117 to 118.5 °C | – | – |
| CC(=O)Nc1cccc(C2=CC3CCC(C2)N3C)c1.O=C(O)/C=C/C(=O)O (racemic) [Compound 3c, (±)-3-(3-Acetamidophenyl)-8-methyl-8-azabicyclo[3.2.1]oct-2-ene Fumaric Acid Salt] | 195.3 to 196.9 °C | – | IC50 [2, 4]: 17000 nM; IC50 [3]: 640 nM |
| CN1C2C=C(c3cnc4ccccc4c3)CC1CC2.O=C(O)/C=C/C(=O)O (racemic) [Compound 3a, (±)-8-Methyl-3-(3-quinolinyl)-8-azabicyclo[3.2.1]oct-2-ene Fumaric Acid Salt] | 140.8 to 143.8 °C | 1440 nM | IC50 [2, 5]: 1300 nM |
| CC(=O)C1=CC2CCC(C1)N2C.O=C(O)/C=C/C(=O)O (racemic) | 148.5 to 150 °C | – | – |
| CN1C2C=C(c3ccc(Cl)nc3)CC1CC2 (racemic) [Compound 5b, (±)-8-Methyl-3-[3-(6-chloro)pyridyl]-8-azabicyclo[3.2.1]oct-2-ene Fumaric Acid Salt] | – | – | IC50 [2, 4]: 20 nM; IC50 [3]: 1900 nM |
| C1=C(c2cc3ccccc3o2)CC2CCC1N2 (racemic) [Compound 1e, (±)-3-(2-Benzofuryl)-8-H-8-azabicyclo[3.2.1]oct-2-ene Fumaric Acid Salt] | – | – | IC50 [2, 4]: > 10000 nM; IC50 [3]: 800 nM |
| CN1C2C=C(c3nc4ccccc4s3)CC1CC2.O=C(O)/C=C/C(=O)O (racemic) | 195 to 196.8 °C | – | – |
| CN1C2C=C(c3cccc(N)c3)CC1CC2.O=C(O)/C=C/C(=O)O (racemic) [Compound 4c, (±)-3-(3-Aminophenyl) 8-methyl-8-azabicyclo[3.2.1]oct-2-ene Fumaric Acid Salt] | 195.3 to 196.9 °C | 440 nM | IC50 [2]: 30 nM |
| CN1C2C=C(c3sccc3-c3ccoc3)CC1CC2.O=C(O)/C=C/C(=O)O (racemic) | 187 to 189 °C | – | – |
| CN1C2C=C(c3ccc(Cl)nc3)CC1CC2 (racemic) (as salt: fumaric acid salt) [Compound 5b, (±)-8-Methyl-3-[3-(6-chloro)pyridyl]-8-azabicyclo[3.2.1]oct-2-ene Fumaric Acid Salt] | 140 to 142 °C | – | – |
| CN1C2C=C(c3csc4ccccc34)CC1CC2.O=C(O)/C=C/C(=O)O (racemic) | 146.6 to 149.5 °C | – | – |
| C1=C(c2cccnc2)CC2CCC1N2Cc1ccccc1.O=C(O)/C=C/C(=O)O (racemic) [Compound 1a, (±)-8-Benzyl-3-(3-pyridyl)-8-azabicyclo[3.2.1]oct-2-ene Fumaric Acid Salt] | 142 to 146 °C | 500 nM | IC50 [2, 5]: 23 nM |
| CN1C2C=C(c3sccc3Br)CC1CC2 (racemic) [Compound 1f, (±)-3-[2-(3-bromothienyl)]-8-methyl-8-azabicyclo[3.2.1]oct-2-ene Fumaric Acid Salt] | – | 82 nM | IC50 [2, 4]: 2200 nM |
| CN1C2C=C(c3oc4ccccc4c3Br)CC1CC2 (racemic) [Compound 2f, (±)-3-[2-(3-Bromobenzofuryl)]-8-methyl-8-azabicyclo[3.2.1]oct-2-ene Fumaric Acid Salt] | – | 1300 nM | IC50 [2, 4]: 30000 nM |
| CN1C2C=C(c3coc4ccccc34)CC1CC2.O=C(O)/C=C/C(=O)O (racemic) [Compound 4a, (±)-3-(3-Benzofuryl)-8-methyl-8-azabicyclo[3.2.1]oct-2-ene Fumaric Acid Salt] | 140.9 to 142.8 °C | 3500 nM | IC50 [2, 5]: 2700 nM |
| CN1C2C=C(c3cc4ccccc4s3)CC1CC2.Cl (racemic) [Compound 2d, (±)-3-(2-Benzothienyl)-8-methyl-8-azabicyclo[3.2.1]oct-2-ene Hydrochloride] | > 250 °C | 67 nM | IC50 [2, 5]: 110000 nM |
| CN1C2C=C(c3ccc[se]3)CC1CC2 (racemic) | 176.8 to 178.3 °C | – | – |
| CN1C2C=C(c3cc4ccccc4o3)CC1CC2 (racemic) [Compound 1d, (±)-3-(2-Benzofuryl)-8-methyl-8-azabicyclo[3.2.1]oct-2-ene Fumaric Acid Salt] | – | 170 nM | IC50 [2, 5]: 120000 nM |
| CN1C2C=C(c3oc4ccccc4c3Br)CC1CC2 (racemic) (as salt: fumaric acid salt) [Compound 2f, (±)-3-[2-(3-Bromobenzofuryl)]-8-methyl-8-azabicyclo[3.2.1]oct-2-ene Fumaric Acid Salt] | 161.4 to 163.3 °C | – | – |
| C1=C(c2cc3ccccc3o2)CC2CCC1N2 (racemic) (as salt: fumaric acid salt) [Compound 1e, (±)-3-(2-Benzofuryl)-8-H-8-azabicyclo[3.2.1]oct-2-ene Fumaric Acid Salt] | 201 to 204 °C | – | – |
| CN1C2C=C(c3cc4ccccc4o3)CC1CC2.O=C(O)/C=C/C(=O)O (racemic) | 188.3 to 190.9 °C and 188.5 to 191.2 °C | – | – |
| CN1C2C=C(c3cc4ccccc4s3)CC1CC2 (racemic) [Compound 2c, (±)-3-(2-Benzothienyl)-8-methyl-8-azabicyclo[3.2.1]oct-2ene] | 81 to 83.6 °C | 100 nM | IC50 [2, 5]: 63800 nM |
| CCN1C2C=C(c3cc4ccccc4o3)CC1CC2.O=C(O)/C=C/C(=O)O (racemic) [Compound 3e, (±)-3-(2-Benzofuryl)-8ethyl-8-azabicyclo[3.2.1]oct-2-ene Fumaric Acid Salt] | 197 to 203 °C | 510 nM | IC50 [2, 5]: > 10000 nM |
| CN1C2C=C(c3cccs3)CC1CC2.O=C(O)/C=C/C(=O)O (racemic) | 141.5 to 143.5 °C | – | – |
| CN1C2C=C(c3cccnc3)CC1CC2 (racemic) [Compound 2a, (±)-8-Methyl-3-(3-pyridyl)-8-azabicyclo[3.2.1]oct-2-ene Fumaric Acid Salt] | – | – | IC50 [2]: 22 nM; IC50 [3]: 550 nM |
